The text below walks through data of paper PMC11167047 (Cell Death Discovery, 2024).

Common to all, as to assay: kinome screen (33PanQinase)
What all share (type): biochemical

One assay addresses T1, CDK6/CycD1 (Homo sapiens, UniProt Q00534).
T1 construct: purchased Reaction Biology Europe GmbH (formerly ProQinase)
As to the method:
(§1) The Kinome Screening was performed by Reaction Biology Europe GmbH (http://reactionbiology.com; Freiburg i. Br., Germany).

The target of the next assay is T2, EIF2AK3 (Homo sapiens, UniProt Q9NZJ5).
T2 construct: purchased Reaction Biology Europe GmbH (formerly ProQinase)
T2 sequence (Q9NZJ5 30-1116): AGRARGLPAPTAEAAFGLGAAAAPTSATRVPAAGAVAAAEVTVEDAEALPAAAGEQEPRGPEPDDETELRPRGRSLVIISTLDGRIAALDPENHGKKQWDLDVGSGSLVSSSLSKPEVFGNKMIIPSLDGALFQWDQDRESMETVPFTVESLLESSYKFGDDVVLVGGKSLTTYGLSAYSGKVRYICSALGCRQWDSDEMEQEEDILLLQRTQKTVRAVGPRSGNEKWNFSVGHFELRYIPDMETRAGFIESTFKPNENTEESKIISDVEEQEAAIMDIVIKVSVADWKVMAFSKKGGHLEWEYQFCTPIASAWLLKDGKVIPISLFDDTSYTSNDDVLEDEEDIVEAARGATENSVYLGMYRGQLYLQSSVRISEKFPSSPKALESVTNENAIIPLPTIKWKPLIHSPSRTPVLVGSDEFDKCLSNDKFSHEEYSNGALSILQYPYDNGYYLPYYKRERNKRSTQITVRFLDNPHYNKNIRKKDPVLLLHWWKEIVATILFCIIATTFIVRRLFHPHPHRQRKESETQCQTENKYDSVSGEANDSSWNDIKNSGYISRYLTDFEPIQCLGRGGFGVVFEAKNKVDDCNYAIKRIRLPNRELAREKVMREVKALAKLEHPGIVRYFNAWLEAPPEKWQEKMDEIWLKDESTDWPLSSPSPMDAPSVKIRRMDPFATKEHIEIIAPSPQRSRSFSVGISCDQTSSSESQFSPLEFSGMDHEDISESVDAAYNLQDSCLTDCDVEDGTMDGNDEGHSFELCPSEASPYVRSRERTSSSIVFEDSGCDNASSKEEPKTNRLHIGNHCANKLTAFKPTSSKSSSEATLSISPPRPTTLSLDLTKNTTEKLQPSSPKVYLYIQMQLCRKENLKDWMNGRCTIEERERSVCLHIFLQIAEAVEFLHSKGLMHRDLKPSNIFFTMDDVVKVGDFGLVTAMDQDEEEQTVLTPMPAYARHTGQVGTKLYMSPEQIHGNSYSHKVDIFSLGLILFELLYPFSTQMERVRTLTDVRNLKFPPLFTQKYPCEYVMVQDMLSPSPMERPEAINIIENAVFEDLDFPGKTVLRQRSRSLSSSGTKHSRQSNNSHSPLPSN
As to the method: as §1

Another assay has as its target T3, p38γ (Homo sapiens, UniProt P53778).
T3 construct: purchased Reaction Biology Europe GmbH (formerly ProQinase)
T3 sequence (P53778 1-367): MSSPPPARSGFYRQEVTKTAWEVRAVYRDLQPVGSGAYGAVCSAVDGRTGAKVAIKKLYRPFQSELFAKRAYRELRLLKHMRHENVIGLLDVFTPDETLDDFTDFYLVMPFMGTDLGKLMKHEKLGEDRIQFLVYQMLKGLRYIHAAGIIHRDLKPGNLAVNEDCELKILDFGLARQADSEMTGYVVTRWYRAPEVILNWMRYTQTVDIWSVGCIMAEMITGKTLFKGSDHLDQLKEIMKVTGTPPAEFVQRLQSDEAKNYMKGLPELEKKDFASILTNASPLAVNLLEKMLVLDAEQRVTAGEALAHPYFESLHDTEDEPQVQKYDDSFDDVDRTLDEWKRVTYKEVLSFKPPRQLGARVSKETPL
As to the method: as §1

A further assay addresses T4, MUSK (Homo sapiens, UniProt O15146).
T4 construct: purchased Reaction Biology Europe GmbH (formerly ProQinase)
T4 sequence (O15146 24-869): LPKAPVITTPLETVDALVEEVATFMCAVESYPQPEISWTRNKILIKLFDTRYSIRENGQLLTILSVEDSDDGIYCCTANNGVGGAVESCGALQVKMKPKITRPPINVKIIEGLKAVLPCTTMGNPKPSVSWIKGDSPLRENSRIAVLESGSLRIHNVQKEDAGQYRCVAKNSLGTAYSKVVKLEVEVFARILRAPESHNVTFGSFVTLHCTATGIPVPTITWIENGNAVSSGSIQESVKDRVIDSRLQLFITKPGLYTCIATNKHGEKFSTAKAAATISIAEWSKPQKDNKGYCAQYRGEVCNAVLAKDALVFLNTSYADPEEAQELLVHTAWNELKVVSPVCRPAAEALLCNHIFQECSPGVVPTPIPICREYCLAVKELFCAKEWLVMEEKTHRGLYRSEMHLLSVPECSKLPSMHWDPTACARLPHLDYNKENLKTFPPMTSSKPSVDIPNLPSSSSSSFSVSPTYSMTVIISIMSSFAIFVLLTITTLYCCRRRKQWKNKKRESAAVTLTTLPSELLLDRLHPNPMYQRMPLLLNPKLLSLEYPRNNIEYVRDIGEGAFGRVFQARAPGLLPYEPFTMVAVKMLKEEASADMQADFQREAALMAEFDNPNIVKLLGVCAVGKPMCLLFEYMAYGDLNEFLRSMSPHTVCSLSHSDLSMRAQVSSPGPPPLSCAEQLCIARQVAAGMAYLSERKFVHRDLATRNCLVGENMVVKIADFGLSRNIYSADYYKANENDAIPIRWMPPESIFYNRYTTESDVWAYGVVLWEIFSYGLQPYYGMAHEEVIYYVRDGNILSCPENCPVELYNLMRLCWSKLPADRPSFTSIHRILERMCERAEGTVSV
As for the experimental part:
as §1

T1 sequence (Q00534 whole entry): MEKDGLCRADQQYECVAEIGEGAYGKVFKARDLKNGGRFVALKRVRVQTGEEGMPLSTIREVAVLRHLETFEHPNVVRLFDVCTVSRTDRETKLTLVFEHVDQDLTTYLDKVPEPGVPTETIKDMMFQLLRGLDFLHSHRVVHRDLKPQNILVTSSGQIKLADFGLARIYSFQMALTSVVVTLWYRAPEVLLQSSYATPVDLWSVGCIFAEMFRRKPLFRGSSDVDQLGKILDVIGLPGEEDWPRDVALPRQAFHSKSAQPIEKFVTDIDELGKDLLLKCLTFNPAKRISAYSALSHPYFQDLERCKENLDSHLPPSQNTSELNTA
T1 sequence (P24385 whole entry partner): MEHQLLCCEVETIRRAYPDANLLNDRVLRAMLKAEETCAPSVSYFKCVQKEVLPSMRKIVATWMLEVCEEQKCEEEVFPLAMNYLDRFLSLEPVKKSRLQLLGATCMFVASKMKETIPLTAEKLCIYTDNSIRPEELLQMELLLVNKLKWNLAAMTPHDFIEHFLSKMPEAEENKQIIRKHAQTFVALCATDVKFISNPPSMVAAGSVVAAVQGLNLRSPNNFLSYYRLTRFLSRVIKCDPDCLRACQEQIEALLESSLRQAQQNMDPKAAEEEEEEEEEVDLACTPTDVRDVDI

For `c1ccc(CNc2cc(-c3c[nH]c4ncccc34)ccn2)cc1` [meriolin 36], the residual kinase activity at CDK6/CycD1 (0.3 µM) is 2 % of control; at CDK6/CycD1 (3 µM) it was 1 % of control; at EIF2AK3 (0.3 µM), 81 % of control; on EIF2AK3 (3 µM), 74 % of control; on p38γ (0.3 µM), 64 % of control; on p38γ (3 µM), 19 % of control. In addition, the residual kinase activity on MUSK (0.3 µM) is given as 28 % of control; on MUSK (3 µM), 5 % of control.

Consider `COc1ccnc2[nH]cc(-c3cc(N)nc(N)c3)c12` [meriolin 16], for which the residual kinase activity at CDK6/CycD1 (0.03 µM) is reported as 93 % of control; on CDK6/CycD1 (0.3 µM), 51 % of control; at EIF2AK3 (0.03 µM), 87 % of control; on EIF2AK3 (0.3 µM), 90 % of control; on p38γ (0.03 µM) it was 56 % of control; at p38γ (0.3 µM), 8 % of control. In addition, the residual kinase activity on MUSK (0.03 µM) is recorded as 88 % of control; on MUSK (0.3 µM), 70 % of control.
